Drawing on the Kinase Knowledgebase extract (Sharma et al. 2016), this text covers IC50 for 66 compounds.

This assay deals with PIK3CA (human) (UniProt P42336). Briefly: Assessment of PIK3CA Kinase Activity.
Chain of PIK3CA (human) (P42336 whole entry, looked up): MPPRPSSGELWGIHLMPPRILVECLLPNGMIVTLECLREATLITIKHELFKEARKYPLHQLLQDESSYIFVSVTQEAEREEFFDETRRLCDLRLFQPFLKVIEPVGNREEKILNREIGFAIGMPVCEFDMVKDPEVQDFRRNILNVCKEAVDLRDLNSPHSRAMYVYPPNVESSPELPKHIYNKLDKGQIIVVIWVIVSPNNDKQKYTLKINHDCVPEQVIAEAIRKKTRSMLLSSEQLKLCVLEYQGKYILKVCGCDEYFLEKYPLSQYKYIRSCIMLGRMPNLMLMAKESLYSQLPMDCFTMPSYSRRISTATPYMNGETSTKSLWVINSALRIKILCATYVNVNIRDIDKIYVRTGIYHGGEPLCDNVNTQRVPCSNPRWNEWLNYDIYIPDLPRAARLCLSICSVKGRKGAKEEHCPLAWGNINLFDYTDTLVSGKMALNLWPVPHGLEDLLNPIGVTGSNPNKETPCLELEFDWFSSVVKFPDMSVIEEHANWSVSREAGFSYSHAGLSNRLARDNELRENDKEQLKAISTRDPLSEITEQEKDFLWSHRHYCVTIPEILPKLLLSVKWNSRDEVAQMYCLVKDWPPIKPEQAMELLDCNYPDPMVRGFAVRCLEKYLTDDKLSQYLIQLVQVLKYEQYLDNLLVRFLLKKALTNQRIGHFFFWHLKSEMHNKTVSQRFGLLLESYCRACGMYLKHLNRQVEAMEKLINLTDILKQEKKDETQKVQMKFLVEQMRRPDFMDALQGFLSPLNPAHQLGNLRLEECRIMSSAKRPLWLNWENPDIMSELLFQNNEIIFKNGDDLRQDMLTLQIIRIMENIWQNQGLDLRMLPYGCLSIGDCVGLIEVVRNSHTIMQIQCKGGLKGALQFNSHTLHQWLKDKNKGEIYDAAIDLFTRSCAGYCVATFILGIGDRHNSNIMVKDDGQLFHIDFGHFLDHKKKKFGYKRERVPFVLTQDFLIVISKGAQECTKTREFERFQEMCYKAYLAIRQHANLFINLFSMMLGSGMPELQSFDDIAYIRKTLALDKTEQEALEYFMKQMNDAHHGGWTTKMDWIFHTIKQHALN
`COc1ccc2c(N3CCOCC3)nc(-c3ccc(NC(=O)Nc4ccc(C(=O)N(C)C)cc4)c(F)c3)nc2c1` displayed an IC50 of 50 to 200 nM.

In the case of `Cc1ccc(-c2ccc3c(N4CCOCC4)nc(-c4ccc(NC(=O)Nc5ccc(C(=O)N6CCN(C)CC6)cc5)cc4)nc3c2)o1`, the IC50 was 50 to 200 nM. For `CC1CN(c2nc(-c3ccc(NC(=O)Nc4ccc(C(=O)N(C)C)cc4)cc3)nc3cc(-c4cnn(C)c4)cnc23)CCO1` (stereo unspecified), the IC50 was less than 50 nM. The compound `CN(C)C(=O)c1ccc(NC(=O)Nc2ccc(-c3nc(N4CCOCC4)c4cc(F)c(-c5cccc(S(C)(=O)=O)c5)cc4n3)cc2)cc1` registered an IC50 of less than 50 nM. Compound `Cc1ccc(-c2ccc3c(N4CCOCC4)nc(-c4ccc(NC(=O)Nc5ccc(C(=O)N(C)CCN(C)C)cc5)cc4)nc3c2)o1` yielded an IC50 of less than 50 nM.

`CN(C)C(=O)c1ccc(NC(=O)Nc2ccc(-c3nc(N4CCOCC4)c4ncc(-c5cccnc5F)cc4n3)cc2F)cc1` had an IC50 of less than 50 nM. To `CN(C)[C@@H]1CCN(C(=O)c2ccc(NC(=O)Nc3ccc(-c4nc(N5CCOCC5)c5ncc(-c6cnn(C)c6)cc5n4)cc3)cc2)C1` belongs less than 50 nM; to `CN(C)C(=O)c1ccc(NC(=O)Nc2ccc(-c3nc(N4CCOCC4)c4cc(F)c(-c5cccnc5)cc4n3)cn2)cc1`, less than 50 nM; to `CN(C)CC(=O)Nc1cncc(-c2ccc3c(N4CCOCC4)nc(-c4ccc(NC(=O)Nc5ccc(C(=O)N(C)C)cc5)cc4)nc3c2)c1`, less than 50 nM. To `Cn1cc(-c2cnc3c(N4CCOCC4)nc(-c4ccc(NC(=O)Nc5ccc(C(N)=O)cc5)cc4)nc3c2)cn1` belongs less than 50 nM; to `CC(=O)Nc1cncc(-c2ccc3c(N4CCOCC4)nc(-c4ccc(NC(=O)Nc5ccc(C(=O)N(C)C)cc5)cc4)nc3c2)c1`, less than 50 nM. In turn, `CN(C)C(=O)c1ccc(NC(=O)Nc2ccc(-c3nc(N4CCOCC4)c4ncc(-c5cnn(C)c5)cc4n3)cc2F)cc1` returned an IC50 of less than 50 nM.

`CN(C)C(=O)c1ccc(NC(=O)Nc2ccc(-c3nc(N4CCOCC4)c4ccc(-c5ccncc5)cc4n3)cc2F)cc1` gave an IC50 of 50 to 200 nM. Turning to `N[C@H]1CCN(C(=O)c2ccc(NC(=O)Nc3ccc(-c4nc(N5CCOCC5)c5ccc(-c6cncnc6)cc5n4)cc3)cc2)C1`, the IC50 was less than 50 nM. To `COc1ccc(-c2ccc3c(N4CCOCC4)nc(-c4ccc(NC(=O)Nc5ccc(C(=O)N(C)C)cc5F)cc4)nc3c2)cn1` belongs less than 50 nM; to `CN(C)CCNC(=O)c1ccc(NC(=O)Nc2ccc(-c3nc(N4CCOCC4)c4ccc(-c5cncnc5)cc4n3)cc2F)cc1`, less than 50 nM; to `CN(C)C(=O)c1ccc(NC(=O)Nc2ccc(-c3nc(N4CCOCC4)c4ccc(-c5ccco5)cc4n3)cn2)cc1`, less than 50 nM.

Turning to `COc1ccc(-c2ccc3c(N4CCOCC4)nc(-c4ccc(NC(=O)Nc5ccc(C(=O)N(C)C)cc5)cc4F)nc3c2)cn1`, the half-maximal inhibitory concentration (IC50) was 50 to 200 nM. The compound `CN(C)C(=O)c1ccc(NC(=O)Nc2ccc(-c3nc(N4CCOCC4)c4ccc(-c5cnc(N(C)C)nc5)cc4n3)cc2)cc1` gave an IC50 of less than 50 nM. The compound `Cc1ccc(-c2cccc3c(N4CCOCC4)nc(-c4ccc(NC(=O)Nc5ccc(C(=O)N(C)C)cc5)cc4)nc23)o1` yielded a half-maximal inhibitory concentration (IC50) of 50 to 200 nM.

`CN(C)C(=O)c1ccc(NC(=O)Nc2ccc(-c3nc(N4CCOCC4)c4cc(F)c(-c5cccnc5F)cc4n3)cc2)cc1` gave an IC50 of less than 50 nM. As to `CN(C)C1CCN(C(=O)c2ccc(NC(=O)Nc3ccc(-c4nc(N5CCOCC5)c5ccc(-c6cccnc6F)cc5n4)cn3)cc2)CC1`, the IC50 was less than 50 nM.

Regarding `CN(C)C(=O)c1ccc(NC(=O)Nc2ccc(-c3nc(N4CCOCC4)c4cc(F)c(-c5cncnc5)cc4n3)c(F)c2)cc1`, the IC50 lay in the range of 50 to 200 nM. For the compound `CN(C)C(=O)c1ccc(NC(=O)Nc2ccc(-c3nc(N4CCOCC4)c4cc(F)c(-c5cnn(C)c5)cc4n3)cc2)cc1`, the IC50 is less than 50 nM.

`CN(C)C(=O)c1ccc(NC(=O)Nc2ccc(-c3nc(N4CCOCC4)c4ccc(-c5ccccn5)cc4n3)cc2)c(F)c1` had an IC50 of less than 50 nM. Consider `CN(C)[C@H]1CCN(C(=O)c2ccc(NC(=O)Nc3ccc(-c4nc(N5CCOCC5)c5ccc(-c6cncnc6)cc5n4)cc3F)cc2)C1`, for which the IC50 is less than 50 nM. For `CN(C)[C@H]1CCN(C(=O)c2ccc(NC(=O)Nc3ccc(-c4nc(N5CCOCC5)c5ncc(-c6cnn(C)c6)cc5n4)cc3)cc2)C1`, the IC50 is less than 50 nM. Compound `CN(C)C(=O)c1ccc(NC(=O)Nc2ccc(-c3nc(N4CCOCC4)c4ccc(-c5cncnc5)cc4n3)c(F)c2F)cc1` registered an IC50 of 50 to 200 nM. As to `CN1CCN(C(=O)c2ccc(NC(=O)Nc3ccc(-c4nc(N5CCOCC5)c5ccc(-c6cnn(C)c6)cc5n4)cc3)cc2)CC1`, the IC50 is 50 to 200 nM. Compound `Cc1ccc(-c2ccc3c(N4CCOCC4)nc(-c4ccc(NC(=O)Nc5ccc(C(=O)N6CC[C@@H](N(C)C)C6)cc5)cc4)nc3c2)o1` registered an IC50 of 50 to 200 nM. For the compound `COc1ccc(-c2ccc3c(N4CCOCC4)nc(-c4ccc(NC(=O)Nc5ccc(C(=O)N(C)C)c(F)c5)cc4)nc3c2)cn1`, the concentration for half-maximal inhibition (IC50) fell in the range of 50 to 200 nM. Compound `CN1CCN(C(=O)c2ccc(NC(=O)Nc3ccc(-c4nc(N5CCOCC5)c5ncc(-c6cncnc6)cc5n4)cc3)cc2)CC1` came in with a half-maximal inhibitory concentration (IC50) of less than 50 nM. To `CN(C)[C@H]1CCN(C(=O)c2ccc(NC(=O)Nc3ccc(-c4nc(N5CCOCC5)c5ccc(C(C)(C)O)cc5n4)cc3)cc2)C1` belongs 50 to 200 nM. Turning to `CC1CN(c2nc(-c3ccc(NC(=O)Nc4ccc(C(=O)N(C)C)cc4)c(F)c3)nc3cc(-c4cncnc4)ccc23)CCO1` (stereo unspecified), the concentration for half-maximal inhibition (IC50) fell in the range of 50 to 200 nM. On to `CN(C)C(=O)c1ccc(NC(=O)Nc2ccc(-c3nc(N4CCOCC4)c4ccc(-c5cnn(C)c5)cc4n3)c(F)c2)cc1`, for which the IC50 lay in the range of 50 to 200 nM. For `N[C@@H]1CCN(C(=O)c2ccc(NC(=O)Nc3ccc(-c4nc(N5CCOCC5)c5ccc(-c6cncnc6)cc5n4)cc3)cc2)C1`, the IC50 was less than 50 nM. On to `CN(C)Cc1ccc(-c2ccc3c(N4CCOCC4)nc(-c4ccc(NC(=O)Nc5ccc(C(=O)N(C)C)cc5)cc4)nc3c2)o1`, for which the IC50 was in the range of 50 to 200 nM. To `CN(C)C1CCN(C(=O)c2ccc(NC(=O)Nc3ccc(-c4nc(N5CCOCC5)c5ncc(-c6cnn(C)c6)cc5n4)cc3)cc2)CC1` belongs less than 50 nM; to `CN(C)CCn1cc(-c2ccc3c(N4CCOCC4)nc(-c4ccc(NC(=O)Nc5ccc(C(=O)N(C)C)cc5)cc4)nc3c2)cn1`, 50 to 200 nM; to `CN(C)C(=O)c1ccc(NC(=O)Nc2ccc(-c3nc(N4CCOCC4)c4ccc(-c5ccccn5)cc4n3)cc2)cc1`, less than 50 nM. To `CN(C)C(=O)c1ccc(NC(=O)Nc2ccc(-c3nc(N4CCOCC4)c4ccc(-c5cccnc5)cc4n3)cc2)cc1` belongs less than 50 nM; to `Cc1ccc(-c2ccc3c(N4CCOCC4)nc(-c4ccc(NC(=O)Nc5ccc(C(=O)N6CC[C@H](N(C)C)C6)cc5)cc4)nc3c2)o1`, 50 to 200 nM; to `Cc1noc(C)c1-c1ccc2c(N3CCOCC3)nc(-c3ccc(NC(=O)Nc4ccc(C(=O)N(C)C)c(F)c4)cc3)nc2c1`, 50 to 200 nM. Compound `CN(C)C(=O)c1ccc(NC(=O)Nc2ccc(-c3nc(N4CCOCC4)c4ccc(-c5cccnc5F)cc4n3)cc2)cc1F` yielded an IC50 of 50 to 200 nM. Then `CN(C)C(=O)c1ccc(NC(=O)Nc2ccc(-c3nc(N4CCOCC4)c4ccc(-c5ccccn5)cc4n3)cc2)cc1F`, with less than 50 nM; and `COc1ncc(-c2cnc3c(N4CCOCC4)nc(-c4ccc(NC(=O)Nc5ccc(C(=O)N(C)C)cc5)cc4F)nc3c2)cn1`, with less than 50 nM; and `CN(C)C(=O)c1ccc(NC(=O)Nc2ccc(-c3nc(N4CCOCC4)c4ncc(-c5cccnc5F)cc4n3)cc2)cc1`, with less than 50 nM. Take `Cc1noc(C)c1-c1ccc2c(N3CCOCC3)nc(-c3ccc(NC(=O)Nc4ccc(C(=O)N(C)C)cc4)cc3)nc2c1`: the concentration for half-maximal inhibition (IC50) is less than 50 nM. To `CN(C)C(=O)c1ccc(NC(=O)Nc2ccc(-c3nc(N4CCOCC4)c4ncc(-c5cnn(C)c5)cc4n3)cc2)cc1` belongs less than 50 nM; to `CN(C)C(=O)c1ccc(NC(=O)Nc2ccc(-c3nc(N4CCOCC4)c4ccc(C(C)(C)O)cc4n3)cc2)cc1`, less than 50 nM; to `CN(C)C(=O)c1ccc(NC(=O)Nc2ccc(-c3nc(N4CCOCC4)c4ncc(-c5cccnc5)cc4n3)cc2)cc1F`, less than 50 nM.

`CN(C)C(=O)c1ccc(NC(=O)Nc2ccc(-c3nc(N4CCOCC4)c4ncc(-c5ccc(CO)o5)cc4n3)cc2F)cc1` registered an IC50 of less than 50 nM. For `CN(C)C(=O)c1ccc(NC(=O)Nc2ccc(-c3nc(N4CCOCC4)c4ncc(-c5cncnc5)cc4n3)cc2F)cc1`, the IC50 was less than 50 nM. The compound `CN(C)C(=O)c1ccc(NC(=O)Nc2ccc(-c3nc(N4CCOCC4)c4ccc(-c5cncc(F)c5)cc4n3)cc2)cc1` gave an IC50 of less than 50 nM.

On to `CN(C)C(=O)c1ccc(NC(=O)Nc2ccc(-c3nc(N4CCOCC4)c4ccc(-c5cnc(O)nc5)cc4n3)cc2)cc1`, for which the IC50 was less than 50 nM.

`COc1ncccc1-c1ccc2c(N3CCOCC3)nc(-c3ccc(NC(=O)Nc4ccc(C(=O)N(C)C)cc4)cc3)nc2c1` returned an IC50 of less than 50 nM. Compound `COc1cc2nc(-c3ccc(NC(=O)Nc4ccc(C(=O)N(C)C)cc4)cc3)nc(N3CCOCC3)c2cc1OC` displayed an IC50 of 50 to 200 nM. For the compound `COc1ncc(-c2ccc3c(N4CCOCC4)nc(-c4ccc(NC(=O)Nc5ccc(C(=O)N(C)C)cc5F)cc4)nc3c2)cn1`, the IC50 fell in the range of 50 to 200 nM. `CN(C)C(=O)c1ccc(NC(=O)Nc2ccc(-c3nc(N4CCOCC4)c4ccc(-c5ccco5)cc4n3)cc2F)cc1` gave an IC50 of 50 to 200 nM. On to `CN(C)C(=O)c1ccc(NC(=O)Nc2ccc(-c3nc(N4CCOCC4)c4cc(F)c(-c5cccnc5)cc4n3)cc2)cc1`, for which the IC50 was less than 50 nM. For `CN(C)C(=O)c1ccc(NC(=O)Nc2ccc(-c3nc(N4CCOCC4)c4ccc(-c5cnc(N)nc5)cc4n3)cc2)cc1`, the IC50 is less than 50 nM.

Regarding `CN(C)CCNC(=O)c1ccc(NC(=O)Nc2ccc(-c3nc(N4CCOCC4)c4ccc(-c5ccco5)cc4n3)cc2)cc1`, the half-maximal inhibitory concentration (IC50) was less than 50 nM. `Cc1ccc(-c2ccc3c(N4CCOCC4)nc(-c4ccc(NC(=O)Nc5ccc(C(=O)N(C)C)nc5)nc4)nc3c2)o1` came in with an IC50 of less than 50 nM.

`N[C@H]1CCN(C(=O)c2ccc(NC(=O)Nc3ccc(-c4nc(N5CCOCC5)c5ccc(-c6cncnc6)cc5n4)cc3F)cc2)C1` displayed an IC50 of less than 50 nM.

Take `N[C@H]1CCN(C(=O)c2ccc(NC(=O)Nc3ccc(-c4nc(N5CCOCC5)c5ccc(-c6ccco6)cc5n4)cc3)cc2)C1`: the IC50 is less than 50 nM. To `COc1ncc(-c2ccc3c(N4CCOCC4)nc(-c4ccc(NC(=O)Nc5ccc(C(=O)N(C)C)cc5)c(F)c4)nc3c2)cn1` belongs 50 to 200 nM.
